Measured values published in ChEMBL document CHEMBL1201862, “PubChem BioAssay data set” (2004).
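Cells were grown in 96-well plates and exposed to each compound for 48 hours at five concentrations; endpoints were interpolated linearly between bracketing concentrations, or set to the highest concentration if not reached. GI50 marks 50% less growth.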 Active and inactive are the calls of the source. No stated cut-off is given here; in the data, active = GI50 up to about 1.1 µM and inactive = higher. Where a SMILES comes first, the peptide text is derived from it. The star is where a group is joined. Boc = CC(C)(C)OC(=O)*

Experiments:
Experiment in all cases: DTP human tumour cell line panel, 48 h
CAKI-1 = tested on: CAKI-1
CCRF-CEM = tested on: CCRF-CEM
COLO 205 = tested on: COLO 205
EKVX = tested on: EKVX
HL-60 = tested on: HL-60
Hs-578T = tested on: Hs-578T
LOX IMVI = tested on: LOX IMVI
MOLT-4 = tested on: MOLT-4
NCI-H460 = tested on: NCI-H460
NCI/ADR-RES = tested on: NCI/ADR-RES
OVCAR-3 = tested on: OVCAR-3
OVCAR-8 = tested on: OVCAR-8
SF-295 = tested on: SF-295
SN12C = tested on: SN12C
SNB-19 = tested on: SNB-19
TK-10 = tested on: TK-10
UO-31 = tested on: UO-31
HT-29 = tested on: HT-29
NCI-H522 = tested on: NCI-H522
SK-MEL-2 = tested on: SK-MEL-2

| Structure (SMILES) | GI50 (CAKI-1) | GI50 (CCRF-CEM) | GI50 (COLO 205) | GI50 (EKVX) | GI50 (HL-60) | GI50 (Hs-578T) | GI50 (LOX IMVI) | GI50 (MOLT-4) | GI50 (NCI-H460) | GI50 (NCI/ADR-RES) | GI50 (OVCAR-3) | GI50 (OVCAR-8) | GI50 (SF-295) | GI50 (SN12C) | GI50 (SNB-19) | GI50 (TK-10) | GI50 (UO-31) | GI50 (HT-29) | GI50 (NCI-H522) | GI50 (SK-MEL-2) |
| --- | --- | --- | --- | --- | --- | --- | --- | --- | --- | --- | --- | --- | --- | --- | --- | --- | --- | --- | --- | --- |
| Cc1cc(C)n(C(=O)CSc2nnc(SCC(=O)n3nc(C)cc3C)s2)n1 | > 100 µM (inactive) | > 100 µM (inactive) | > 100 µM (inactive) | 25.5 µM (inactive) | > 100 µM (inactive) | 33.8 µM (inactive) | > 100 µM (inactive) | > 100 µM (inactive) | > 100 µM (inactive) | > 100 µM (inactive) | 91.8 µM (inactive) | > 100 µM (inactive) | > 100 µM (inactive) | > 100 µM (inactive) | > 100 µM (inactive) | > 100 µM (inactive) | > 100 µM (inactive) | – | – | – |
| COC(=O)c1c2n(c3ccccc13)C[C@H]1OC(C)(C)O[C@@H]21 | > 65.6 µM (inactive) | > 100 µM (inactive) | > 100 µM (inactive) | > 100 µM (inactive) | – | > 100 µM (inactive) | > 100 µM (inactive) | > 100 µM (inactive) | > 100 µM (inactive) | > 100 µM (inactive) | > 100 µM (inactive) | > 100 µM (inactive) | > 100 µM (inactive) | > 100 µM (inactive) | > 100 µM (inactive) | > 100 µM (inactive) | > 100 µM (inactive) | > 100 µM (inactive) | > 100 µM (inactive) | > 100 µM (inactive) |
| C=CCOc1ccccc1C1(O)c2ccccc2C2=NCCCN21 (stereo not drawn) | > 100 µM (inactive) | 33 µM (inactive) | 21.4 µM (inactive) | 56.1 µM (inactive) | 26.8 µM (inactive) | 77.8 µM (inactive) | 38.1 µM (inactive) | 32.9 µM (inactive) | 78.9 µM (inactive) | > 100 µM (inactive) | 22.2 µM (inactive) | 19.5 µM (inactive) | 31 µM (inactive) | 74.1 µM (inactive) | 33.5 µM (inactive) | 90.8 µM (inactive) | > 100 µM (inactive) | 19.5 µM (inactive) | – | – |
| C(#Cc1ccccc1)SC1=C(c2ccccc2)S/C(=C(\SC#Cc2ccccc2)c2ccccc2)S1 | > 100 µM (inactive) | > 100 µM (inactive) | > 100 µM (inactive) | > 100 µM (inactive) | – | > 100 µM (inactive) | > 100 µM (inactive) | > 100 µM (inactive) | > 100 µM (inactive) | > 100 µM (inactive) | > 100 µM (inactive) | > 100 µM (inactive) | > 100 µM (inactive) | > 100 µM (inactive) | > 100 µM (inactive) | > 100 µM (inactive) | > 100 µM (inactive) | > 100 µM (inactive) | > 100 µM (inactive) | – |
| CC(=O)c1sc(=N)n(-c2c(C)cccc2C)c1C | – | > 100 µM (inactive) | > 100 µM (inactive) | > 100 µM (inactive) | > 100 µM (inactive) | > 100 µM (inactive) | > 100 µM (inactive) | > 100 µM (inactive) | > 100 µM (inactive) | > 100 µM (inactive) | > 100 µM (inactive) | – | – | > 100 µM (inactive) | > 100 µM (inactive) | > 100 µM (inactive) | > 100 µM (inactive) | > 100 µM (inactive) | > 100 µM (inactive) | > 100 µM (inactive) |
| COC(OC)[C@@H]1OC[C@@H](O)[C@@H]1n1cnc2c(N)ncnc21 | > 100 µM (inactive) | > 100 µM (inactive) | > 100 µM (inactive) | > 100 µM (inactive) | – | > 100 µM (inactive) | > 100 µM (inactive) | > 100 µM (inactive) | > 100 µM (inactive) | > 100 µM (inactive) | > 100 µM (inactive) | – | > 100 µM (inactive) | > 100 µM (inactive) | – | > 100 µM (inactive) | > 100 µM (inactive) | > 100 µM (inactive) | > 100 µM (inactive) | > 100 µM (inactive) |
| COc1cccc(C2c3cc4c(cc3OC(N3CCCC3)C2C)OCO4)c1OC (stereo not drawn) | 0.561 µM (active) | 2.77 µM (inactive) | 3.46 µM (inactive) | 6.49 µM (inactive) | – | 1.59 µM (inactive) | 1.96 µM (inactive) | 2.77 µM (inactive) | 3.17 µM (inactive) | 2.32 µM (inactive) | 1.66 µM (inactive) | 2.96 µM (inactive) | 1.92 µM (inactive) | 3.02 µM (inactive) | 1.58 µM (inactive) | 5.74 µM (inactive) | 2.27 µM (inactive) | 2.65 µM (inactive) | 3.69 µM (inactive) | 3.89 µM (inactive) |
| CCOC(=O)/C=C(/C(=O)OCC)n1ccc(=O)n(Cc2cnnn2CCCCOC(C)=O)c1=O | 30.2 µM (inactive) | 2.2 µM (inactive) | 19.1 µM (inactive) | 63.8 µM (inactive) | – | > 100 µM (inactive) | > 100 µM (inactive) | 20.4 µM (inactive) | > 100 µM (inactive) | > 100 µM (inactive) | > 100 µM (inactive) | > 100 µM (inactive) | > 100 µM (inactive) | > 100 µM (inactive) | > 100 µM (inactive) | 32.8 µM (inactive) | > 100 µM (inactive) | > 100 µM (inactive) | 20.7 µM (inactive) | > 100 µM (inactive) |
| CCOC(=O)c1c2ccccc2n2c(=O)n(-c3ccccc3)nnc12 | > 91.4 µM (inactive) | 1.4 µM (inactive) | 40.7 µM (inactive) | > 100 µM (inactive) | 23.8 µM (inactive) | > 100 µM (inactive) | 7.93 µM (inactive) | – | 30.7 µM (inactive) | > 58.3 µM (inactive) | 17.3 µM (inactive) | > 100 µM (inactive) | 3.25 µM (inactive) | > 100 µM (inactive) | > 100 µM (inactive) | > 100 µM (inactive) | 74.8 µM (inactive) | – | – | > 25.8 µM (inactive) |
| Cc1nc(C)c(N2CCN(Cc3ccccc3)CC2)c(O)n1 | – | > 100 µM (inactive) | > 100 µM (inactive) | > 100 µM (inactive) | > 100 µM (inactive) | > 100 µM (inactive) | > 100 µM (inactive) | > 100 µM (inactive) | > 100 µM (inactive) | > 100 µM (inactive) | > 100 µM (inactive) | > 100 µM (inactive) | > 100 µM (inactive) | > 100 µM (inactive) | > 100 µM (inactive) | > 100 µM (inactive) | > 100 µM (inactive) | > 100 µM (inactive) | > 100 µM (inactive) | – |
| COC(=O)C(COC(=O)/C=C/c1ccc(OC(C)=O)c(OC(C)=O)c1)OC(=O)/C=C/c1ccc(OC(C)=O)c(OC(C)=O)c1 (stereo not drawn) | 6.87 µM (inactive) | 3.38 µM (inactive) | 15.9 µM (inactive) | 17.5 µM (inactive) | – | 13.7 µM (inactive) | 5.16 µM (inactive) | 1.95 µM (inactive) | 18.7 µM (inactive) | 20 µM (inactive) | 6.32 µM (inactive) | 11.8 µM (inactive) | 14.3 µM (inactive) | 14.6 µM (inactive) | 8.32 µM (inactive) | 18.6 µM (inactive) | 10 µM (inactive) | 6.9 µM (inactive) | 5.18 µM (inactive) | 12.2 µM (inactive) |
| Cc1cnc2nc(-c3sccc3C)cc(O)c2c1 | 6.47 µM (inactive) | 1.6 µM (inactive) | 3.21 µM (inactive) | 7.06 µM (inactive) | – | 2.3 µM (inactive) | 7.83 µM (inactive) | 6.18 µM (inactive) | 2.99 µM (inactive) | 2.31 µM (inactive) | 3.13 µM (inactive) | 4.06 µM (inactive) | 2.26 µM (inactive) | 10.2 µM (inactive) | 2.85 µM (inactive) | > 33.7 µM (inactive) | 6.25 µM (inactive) | 2.4 µM (inactive) | 1.12 µM (active) | 3.4 µM (inactive) |
| Oc1cc(-c2ccccc2)nc2c(S)cccc12 | – | > 100 µM (inactive) | > 100 µM (inactive) | – | 97.9 µM (inactive) | > 100 µM (inactive) | – | 47.3 µM (inactive) | > 100 µM (inactive) | > 100 µM (inactive) | > 100 µM (inactive) | > 100 µM (inactive) | > 100 µM (inactive) | > 100 µM (inactive) | > 100 µM (inactive) | > 100 µM (inactive) | – | > 100 µM (inactive) | > 100 µM (inactive) | – |
| CC(NC(=O)C(NC(=O)OC(C)(C)C)C(C)C)C(=O)NCC(=O)O (stereo not drawn) (Boc-Val-Ala-Gly-OH; configuration not given here) | > 100 µM (inactive) | – | > 100 µM (inactive) | > 100 µM (inactive) | – | > 100 µM (inactive) | – | > 100 µM (inactive) | > 100 µM (inactive) | > 100 µM (inactive) | > 100 µM (inactive) | > 100 µM (inactive) | > 100 µM (inactive) | > 100 µM (inactive) | > 100 µM (inactive) | > 100 µM (inactive) | > 100 µM (inactive) | > 100 µM (inactive) | > 100 µM (inactive) | > 100 µM (inactive) |
| O=c1[nH]c(=O)n([C@@H]2O[C@H](CO)[C@@H](O)[C@H]2O)cc1F [5-FLUOROURIDINE] | 0.0483 µM (active) | 0.057 µM (active) | 0.0787 µM (active) | 37.2 µM (inactive) | 0.0867 µM (active) | 2.01 µM (inactive) | 0.0556 µM (active) | 0.0861 µM (active) | 0.0159 µM (active) | 0.0792 µM (active) | 0.223 µM (active) | 0.056 µM (active) | 0.145 µM (active) | 0.0603 µM (active) | 0.0579 µM (active) | 5.74 µM (inactive) | 0.0792 µM (active) | 0.0407 µM (active) | – | 2.32 µM (inactive) |
